# Where “and” joins values, the source holds several entries; their conditions need not be identical. Identical values can stand only once.
# Legend:
# [1] = test system: C57BL/6J mice; conditions: mouse, in vivo
# [2] = test system: Balb/c mice; conditions: mouse, in vivo
structure (smiles),measurement,setting,value
C[C@@H]1CCN(C(=O)CC#N)C[C@@H]1N(C)c1ncnc2[nH]ccc12 [Tofacitinib],Increase in luciferase expression by pretreatment,[1],~60 fold
same,"Mean antigen-specific T-cells, IFNg+ (% of CD8)",[2],13 % of CD8 and 12.9 % of CD8
